Experimental data as given in patent US9102667B2, “N-arylaminomethylene benzothiophenones for treatment of cardiovascular disease” (FORSCHUNGSVERBUND BERLIN E.V., priority 2011, dated 2015).
One block for each molecule: values may come before it.

Legend:
PKA subunit RIIα = PKA subunit RIIα (Homo sapiens, UniProt P13861); experiment: Microscale Thermophoresis (MST); type: binding; details: 20 mM Phosphate, pH 7.5, 100 mM NaCl, 0.05% Tween 20, 5% DMSO, 25° C.
Experimental: Microscale Thermophoresis (MST) were performed on a monolith NT machine (nano tember technologies, Munich, Germany) with exemplary compounds (T2/11, 15, 59) in 20 mM Phosphate, pH 7.5, 100 mM NaCl, 0.05% Tween 20 and 5% DMSO according to the general protocol provided by the manufacturer. Interaction partners were PKA subunit RIIα labelled with blue fluorescent dye NT-495; the parameters were: LED blue, LED Power 80%, Laser Power 20-80%, 25° C. A constant concentration of compounds was titrated with increasing concentrations of unlabelled PKA RIIα (50 nM, 100 nM, 250 nM, 500 nM, 1 μM, 2.5 μM, 5 μM, 10 μM, 25 μM, 50 μM, 100 μM and 200 μM).

AKAP-PKA interaction = AKAP-PKA interaction (Homo sapiens, UniProt P13861); experiment: AKAP-PKA interaction (disruption) assays of Examples 1-3: alpha screen, surface plasmon resonance, ELISA (combined classification); type: binding; details: for IC50: read-out: Activity (IC50 class); for Activity in AKAP-PKA interaction assays (in words): assays of Examples 1-3
Chain of AKAP-PKA interaction (P13861 2-404 limits assumed): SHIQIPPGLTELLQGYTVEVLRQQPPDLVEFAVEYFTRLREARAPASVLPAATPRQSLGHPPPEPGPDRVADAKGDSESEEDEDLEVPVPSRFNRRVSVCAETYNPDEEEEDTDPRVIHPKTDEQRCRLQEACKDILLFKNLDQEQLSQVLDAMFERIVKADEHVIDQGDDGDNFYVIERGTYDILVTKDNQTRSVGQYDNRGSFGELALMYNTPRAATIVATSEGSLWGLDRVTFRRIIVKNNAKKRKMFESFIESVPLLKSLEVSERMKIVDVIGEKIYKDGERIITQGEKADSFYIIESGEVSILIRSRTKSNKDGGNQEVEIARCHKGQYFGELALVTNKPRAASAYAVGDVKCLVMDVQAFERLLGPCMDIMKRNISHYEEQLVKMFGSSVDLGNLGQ
Experimental: The inhibition of the interaction of the alpha RII subunit of protein kinase A with AKAP18-alpha by the compounds according to the invention is determined as follows:
The experiment measures the suitability of candidate compounds for the inhibition of the interaction between AKAP and PKA. An AKAP-GST fusion construct is immobilized on glutathione donor beads and His-RII-alpha on Ni-chelate acceptor beads. To the extent that the partners interact, singlet oxygen from the donor beads becomes free and activates the fluorescence emission of the acceptor beads. The fluorescence emission determined in the microplate reader is proportional to the intensity of interaction of the protein partners. The IC50 is determined from the results of the measurement of several concentrations of one candidate compound.
The details of the process were as follows: Two protein Solutions A and B are produced in a buffer (phosphate NaCl buffer, 0.1% polysorbate 80, 0.1% [=1 mg/ml BSA]). These contain (A) the histidine-6-tagged fusion construct RII-alpha-His (3.125 nmol/l) and (B) the glutathione-S-transferase-tagged fusion construct GST-AKAP18-alpha-d2-10 (6.25 nmol/l). One volume unit each of protein solution and bead suspension are incorporated, specifically Solution A of the His6-tagged protein with Ni-chelate bead suspension and Solution B of the GST-fusion protein with glutathione beads (Perkin Elmer Product No. 6765302), and in doing so the concentrations are selected according to the manufacturers information. The Mixtures A and B obtained are incubated for one hour at room temperature (RT) in the dark.
Then, 5 μl of Mixture A is laid out for each hole on a 384-hole microtiter plate, and then to start with 0.5 μl of a solution of the candidate compound in DMSO is added and then 5 μl of Mixture B. The resulting reaction mixture is incubated 1 h at RT in the dark. Then, the reaction is tempered to 28.5° C., and the emitter intensity of the acceptor is determined in a microtiter plate reader after excitation of the donor at 680 nm.
The relative inhibition of the AKAP-PKA interaction is calculated following the formula: 1−(xc−y)/(z−y) where: X=average of readings (n=3) at concentration c; Y=average of measurement data from bead-bead check (n=6); Z=average of measurement data from protein-protein check (n=6). Results:
Surface plasmon resonance analyses for competition in solution were performed with streptavidin-coated sensor chips (GE Healthcare, Uppsala, Sweden). The N-terminal biotinylated peptide AKAP18d-L314E was used, which is a variant of the RH-binding domains of AKAP18δ (Hundsrucker et al., Biochem. J. 396, 297-306, [2006]). The binding of the regulatory subunit of the human PKAII-α or RII-β onto the peptide surface of the AKAP18δ-L314E, or the inhibition of this binding to RII by the compounds of the invention, was measured on a Biacaore 3000 machine (Biacore/GE Healthcare) as previously described (Henn et al., J Biol Chem 279, 26654-26665 [2004]). The compounds were injected for 60 sec at a flow rate of 30 μl/min, and the dissociation phase was measured for 180 sec.
Multititer plates (Corning B.V. Life Sciences, Schiphol-Rijk, Netherlands) were coated with recombinantly produced PKA RIIα (15 ng/hole) by incubation with phosphate buffer containing protease inhibitors (1 h, 22° C.). The plate was then blocked with lactoprotein.
GST-AKA7δ (Hundsrucker et al., Biochem. J. 396, 297-306, [2006]; 15 ng/well) was incubated with and without candidate compounds on the plate for 1 h at 22° C. After washing, it was incubated with antibodies (rabbit) against AKA7δ (A18δ3) and then with a peroxidase-conjugated antirabbit antibody and developed with dye substrate (LumiLight Western Blotting Substrate, Roche Diagnostics, Mannheim, Germany). Luminescence activity was determined in a microplate reader (GeniosPro, Tecan, Durham, N.C., United States) at 10 msec integration.

[1] = system: TAC operated C57BL/6 mice; experiment: Echocardiography in the TAC model, Example 5a; type: in vivo
Experimental: Protocol: For intervention 12- to 14-week-old male C57BL/6 mice (Charles River Sulzfeld) were anesthetized by 2.4% isoflurane inhalation. Transverse aortic banding (TAC) was performed by tying a 7-0 prolene suture (Ethicon) ligature around the aorta and a blunted 26-gauge needle and subsequent removal of the needle. For sham controls the suture was not tied. TAC was confirmed by echocardiography and measurement of blood flow gradient 4 weeks after surgery. Next, mini-osmotic pumps (model 1004, Alzet) with T2/15 compound/vehicle were implanted i.p. Echocardiography was performed 2 and 4 weeks with compound treatment.
For echocardiography analyses mice were anesthetized by 2.4% isoflurane inhalation and ventricular measurements were done with a VisualSonics Vevo 2100 Imaging System equipped with a 45 MHz MS-550D MicroScan transducer. The observer was unaware of the genotypes and treatments.
Differences between experimental groups were analyzed using ANOVA test followed by Bonferroni's Multiple Comparison Test using Prism Graphpad 4. Data are presented as mean±SEM. P<0.05 values were considered significant.

[2] = system: C57B1/6 mice undergoing TAC operations; experiment: Transverse aortic constriction (TAC) animal model, Example 5; type: in vivo
Experimental: In male C57B1/6 mice (12-14 weeks old, average weight 26 g), high pressure overload induced by restricting the aorta following the method published by de Alameida et al. (J vis exp. 2010 Apr. 21; [38]). Control animals were treated with sham operations. The animals were observed over a period of 4 weeks after the operation, and then mini osmotic pumps were implanted intraperitoneally with a compound to be tested (0.5, 5, 50, and 100 μmol/l, corresponding to 6 μg/kg/day) (Table 2), a β1-adrenergic receptor antagonist (metoprolol; 24 mg/kg/day), a β1-adrenergic receptor […], a PDE3-inhibitor (milrinone; 3.0 mg/kg/d), and DMSO. Echocardiograms were done two and four weeks after implantation.
As expected, the narrowing of the aorta leads to cardiac hypertrophy and chronic heart failure in the 4-week period after surgery. The ejection fraction (ejection fraction; Ef) is the portion of the blood contained in the chambers of the heart that is ejected in comparison with the total volume at the end of diastole of the ventricle. […] The following groups were measured:
Animals undergoing sham operations with • only DMSO as vehicle control (solid black bar); • Compound 59, 3 μg/kg/day in DMSO (checked bar); • Compound 59, 6 μg/kg/day in DMSO (bold crosshatched bar);
Animals undergoing TAC operations with • only DMSO as vehicle control (bold vertically hatched bar); • Compound 59, 0.03 μg/kg/day in DMSO (bold diagonal hatching to upper right); • Compound 59, 0.03 μg/kg/day in DMSO (bold diagonal hatching to lower right); • Compound 59, 3 μg/kg/day in DMSO (thin diagonal hatching to upper right); • Compound 59, 6 μg/kg/day in DMSO (thin diagonal hatching to lower right);

[3] = class from IC50 values in assays of Examples 1, 2 or 3
[4] = between 0.3 and 3 μg/kg/d, vs. DMSO

Chain of PKA subunit RIIα (P13861 whole entry): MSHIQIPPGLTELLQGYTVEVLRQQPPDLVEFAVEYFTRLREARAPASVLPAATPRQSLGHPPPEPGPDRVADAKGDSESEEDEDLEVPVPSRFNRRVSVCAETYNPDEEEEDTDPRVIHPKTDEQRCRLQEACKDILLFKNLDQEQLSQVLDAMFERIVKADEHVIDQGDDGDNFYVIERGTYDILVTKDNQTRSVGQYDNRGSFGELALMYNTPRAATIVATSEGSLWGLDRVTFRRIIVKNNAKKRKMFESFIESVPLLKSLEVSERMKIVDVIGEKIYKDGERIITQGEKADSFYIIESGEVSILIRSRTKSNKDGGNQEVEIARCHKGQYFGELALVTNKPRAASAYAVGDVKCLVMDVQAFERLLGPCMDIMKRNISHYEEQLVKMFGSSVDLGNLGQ

SMILES: O=C1/C(=C/Nc2nc3ccccc3s2)Cc2ccccc21 [T2/55, (2e)-2-[(1,3-benzothiazole-2-ylamino)methylene]indane-1-one]
IC50 (AKAP-PKA interaction; [3]): < 250 µM

SMILES: O=C(O)c1ccc(N/C=C2\Cc3ccccc3C2=O)cc1 [T2/56, 4-[[(e)-(1-oxoindan-2-ylidene)methyl]amino]benzoic acid]
IC50 (AKAP-PKA interaction; [3]): < 150 µM

SMILES: O=C1/C(=C/Nc2nc3ccccc3s2)Oc2ccccc21 [T2/57, (2Z)-2-[(1,3-benzothiazole-2-ylamino)methylene]benzofuran-3-one]
IC50 (AKAP-PKA interaction; [3]): 250 to 750 µM

SMILES: O=C(O)c1ccc(N/C=C2\Oc3ccccc3C2=O)cc1 [T2/58, 4-[[(z)-(3-oxobenzofuran-2-ylidene)methyl]amino]benzoic acid]
Activity (IC50 class) (AKAP-PKA interaction; [3]): 4-[[(z)-(3-oxobenzofuran-2-ylidene)methyl]amino]benzoic acid Activity: B/C

SMILES: O=C(O)c1ccc(N/C=C2\Sc3ccccc3C2=O)cc1 [T2/59, 4-[[(z)-(3-oxobenzothiophene-2-ylidene)methyl]amino]benzoic acid]
heart rate ([2]; TAC model mice): does not affect the heart rate | ejection fraction (Ef) ([2]; TAC operated mice, i.p. mini osmotic pump, depending on the dose, operated without treatment 20%, healthy >60%): 40% | heart weight (ratio of heart weight to the tibia length) ([2]; TAC operated treated mice, FIG. 2): falls significantly | Kd (PKA subunit RIIα): 88.5 µM | IC50 (AKAP-PKA interaction; [3]): < 250 µM

SMILES: Cc1ccccc1N/C=C1/Sc2ccccc2C1=O [T3/4, (2E)-2-[(2-methylanilino)methylene]benzothiophen-3-one]
Activity in AKAP-PKA interaction assays (in words) (AKAP-PKA interaction): abolished activity

SMILES: O=C1/C(=C/Nc2ccc(O)cc2)Sc2ccccc21 [VI, (2Z)-2-[(4-hydroxyanilino)methylene]benzothiophen-3-one, reference compound]
Activity in AKAP-PKA interaction assays (in words) (AKAP-PKA interaction): could not be found to show significant reduction of AKAP-PKA interaction

Further lines, with some results ahead:

Kd (PKA subunit RIIα): 31.9 µM | IC50 relative to that of the unsubstituted mother compound (AKAP-PKA interaction; alkyl substituent on heteroaromatic pentacycle): about 50% | IC50 (AKAP-PKA interaction; [3]): < 150 µM
SMILES: Cc1cnc(N/C=C2\Sc3ccccc3C2=O)s1 [T2/11, (2Z)-2-[[(5-methylthiazole-2-yl)amino]methylene]benzothiophene-3-one]

Kd (PKA subunit RIIα): 98.1 µM | IC50 (AKAP-PKA interaction; [3]): < 25 µM
SMILES: N#Cc1cnc(N/C=C2\Sc3ccccc3C2=O)s1 [T2/15, 2-[[(z)-(3-oxobenzothiophene-2-ylidene)methyl]amino]thiazole-5-carbonitrile]
cardiac function [1, 4]: improved function | heart rate or -mass [1, 4]: without increasing | wall dimensions and cavity diameter (IVSd, LVPWd, LVEDd) ([1]; echocardiography, i.p. mini-osmotic pump, 2 and 4 weeks treatment): no significant effect | HW/TL (heart weight normalized against tibia length) ([1]; treatment vs. DMSO, FIG. 6): has an effect on HW/TL

IC50 (AKAP-PKA interaction; [3]): < 25 µM
SMILES: O=C1/C(=N/Nc2ncc([N+](=O)[O-])s2)Sc2ccccc21 [T2/52, (2Z)-2-[(5-nitrothiazole-2-yl)hydrazono]benzothiophene-3-one]

IC50 (AKAP-PKA interaction; [3]): < 25 µM
SMILES: O=C(O)c1cnc(N/N=C2\Sc3ccccc3C2=O)s1 [T2/53, 2-[(2Z)-2-(3-oxobenzothiophene-2-ylidene)hydrazino]thiazole-5-carboxylic acid]
